Data published in patent publication US20050008596A1, “Composition containing an oxidation-sensitive active principle and a polyisobutylene polymer” (L'OREAL, priority 2003, published 2005).

Test: Accelerated storage test: decomposition of ascorbic acid in the composition after two months at 45° C., HPLC
Type: physicochemical
Details: formulated in the presence of Lubrizol 5603, compared with conventional emulsifier; even in the presence of oxygen
Method: The aim of this test is to study the decomposition of an oxidation-sensitive hydrophilic active principle in a composition, after storage for two months at 45° C.
The degree of decomposition measured is given by the ratio: (C0-C2 months)/C0 with C0 being the concentration of ascorbic acid at t=0 and C2 months being the concentration of ascorbic acid at t=2 months.
The concentration of ascorbic acid is determined by the HPLC technique (Merck LaChrom system). The analytical conditions are as follows: • Column: Lichrosphere 100 RP18 (250 mm) • Eluant: 0.1M phosphate buffer, pH 2.1 • Flow rate: 1 ml/min • Detection at 257 nm. • Dilution of the sample such that the concentration of ascorbic acid is between 0.05 and 1 mg/ml.
The test was carried out with the composition Example 1, and with the composition of Comparative Example 1 which contains, instead of the polymer according to the invention, a conventionally used emulsifier, cyclopentasiloxane and PEG/PPG-18/18 dimethicone.

- Increase of stability of the ascorbic acid: 50%
Compound: O=C1O[C@H]([C@@H](O)CO)C(O)=C1O [ascorbic acid]
